# Measurements as given in US20090203877A1, “X-RAY-DENSE CONJUGATE” (Eberhard-Karls-Universitaet Tuebingen Universitaetsklinkum, priority 2006, published 2009).
# Entries after “also recorded” stand apart in the source; their conditions may differ.
# Experiments:
# [1] = tested on: human malignant U373 glioma cells; test: Computer tomography, signal density of cell pellets; type: cell-based; details: 260 μM, 20 min
# Method: For CT and FACS human U373 glioma cells were grown under the same conditions in 75 cm^2 culture flasks (Corning Costar, Bodenheim, Germany) (70% confluency). Accutase™ (PAA laboratories, Pasching, Austria) was added to achieve detachment of the cells which were harvested and subsequently aliquoted into Eppendorf tubes (6×10^6 cells per tube). As in the investigations performed by fluorescence microscopy, the cells in the first tube served as a control (PBS only). The cells in the other tubes were incubated with 260 μM Ultravist, 260 μM TIBA in PBS and 26 μM, 260 μM and 2.6 mM conjugates 1-4 in PBS. After a 20 minute incubation period at 37° C. in an atmosphere of 5% CO2, the cells were washed three times in PBS and centrifuged at 800 rpm for 5 minutes.
# The inner ear spiral CT protocol consisted of: tube voltage 120 KV, effective mAs 550, time of imaging TI: 1.5, SL 0.75/0.75/4.5, FOV: 50 0/52, kernel: U70, window: intervertebral disc.
# 3D-images were obtained using InSpace Software (Syngo CT 2006G) (Siemens AG, Erlangen, Germany).
# After an incubation of 20 minutes at 37° C./5% CO2 the cells were washed three times with PBS buffer and centrifuged at 800 rpm (rounds per minute) for 5 minutes. The fluorescence was measured in Becton Dickinson FACSCalibur as described under 1.4. The computer tomography was performed as described under 1.5.1. The examinations were repeated two times. […]
# An Orbita CT spiral was used: tube voltage 120 KV, effective mAs 550, time of imaging TI: 1.5, SL 0.75/0.75/4.5, FOV: 50 0/52, GT: 0.0, kernel: U70, window: intervertebral disc. 3D images were made with the InSpace Software (Syngo CT 2006G) (Siemens AG, Erlangen, Germany). […]
# [2] = tested on: human vascular endothelial cells; details: traditional contrast media; cited from earlier work
Compound,CT signal density of cell pellets [1],concentration at which apoptosis is induced [2] [mg iodine per millilitre]
"COCC(=O)Nc1c(I)c(C(=O)NCC(O)CO)c(I)c(C(=O)N(C)CC(O)CO)c1I (stereo not drawn) [Ultravist, Iopromid, reference compound]",only low signal density values; also recorded: did not result in any increase in signal density,250
CNC(=O)c1c(I)c(C(=O)NCC(=O)Nc2c(I)c(C(=O)O)c(I)c(C(=O)NCCO)c2I)c(I)c(N(C)C(C)=O)c1I [ioxaglate],,250
